Data published in US20140242099A1 (Synta Pharmaceuticals Corp., priority 2011, published 2014).

How the values were obtained:
[1] = target: T1, ICRAC current (CRAC ion channels), RBL-2H3 cells (Rattus norvegicus, UniProt Q5M848); assay: Automated patch clamp (Qpatch) inhibition of ICRAC current in RBL-2H3 cells; format: cell-based; conditions: compound at 100 nM, method calculates % ICRAC inhibition
T1 construct: endogenous in cells; host or cells: RBL-2H3 (rat basophilic leukemia cells)
Experimental: Automated patch clamp experiments are conducted with the QPatch 16 (Sophion Bioscience, Ballerup, Denmark) at room temperature (21-25° C.). Immediately following the establishment of giga-seal whole-cell configuration, the cells membrane potential is clamped at 0 mV. Voltage ramps of 50 ms duration spanning the voltage range of −100 to +100 mV are then stimulated at a rate of 0.33 Hz. Currents are filtered at 2.9 kHz and digitized at 200 μs intervals. Capacitive currents and series resistance are determined and corrected before each voltage ramp using the automatic capacitance compensation.
RBL-2H3 are grown in DMEM media supplemented with 10% fetal bovine serum, penicillin 100 U/ml and streptomycin […] in an atmosphere of 95% air/5% CO2. Cells are grown to confluence in 175 cm^2 tissue culture flask. On the experimental day, cells harvested with 0.25% trypsin/0.02% EDTA and resuspended in extracellular solution at density of 5×10^6 cells/ml.
The intracellular solution contains Cs-Glutamate 90 mM; NaCl 8 mM; MgCl2 3 mM; CsCl 20 mM; CsBAPTA 20 mM; HEPES 10 mM; InsP3 0.02 mM; pH=7.2 adjusted with CsOH.
The extracellular solution contains NMDGCl 120 mM; KCl 5.4 mM; CsCl 10 mM; CaCl2 10 mM; MgCl2 1 mM; HEPES 10 mM; Glucose 5.5 mM; at pH=7.4 adjusted with HCl.
ICRAC currents are measured using 50 msec voltage ramps between −100 mV to +100 mV. The voltage ramps are stimulated every 3 seconds for at least 570 seconds. The maximum ICRAC current is allowed to develop for at least 135 seconds. Compounds diluted in extracellular solutions are then applied twice, 30 seconds apart. After incubating the cells with compound for 435 seconds, a reference solution is applied at the end of the experiment. The reference solution is a Ca^2+ free extracellular solution.
Off-line analysis with the Qpatch software is used to plot the current value at −80 mV for each ramp trace against time. The resulting current versus time data is then exported into a Microsoft Excel spreadsheet. The ICRAC membrane currents are separated from the cells basal background currents by either subtracting out the average membrane current values during the first 1-3 traces, or the average membrane current values obtained with the reference solution at the end of the experiment. The % ICRAC inhibition in each cell is calculated by comparing the amount of current just prior to the first compound addition to the amount of current after the cells has been perfused with the compound for at least 400 seconds.

[2] = tested on: IL-2 production in Jurkat T-cells; assay: Inhibition of IL-2 production, Jurkat/PHA/1% FBS, ELISA; format: cell-based; conditions: Homo sapiens, read-out: IL-2 inhibition Jurkat/PHA/1% FBS IC50 (nM), PHA 2.5 μg/mL, 20 hours
Experimental: JurkaT-cells were placed in a 96 well plate (0.5 million cells per well in 1% FBS medium), and then a test compound of this invention was added at different concentrations. After 10 minutes, the cells were activated with PHA (final concentration 2.5 μg/mL) and incubated for 20 hours at 37° C. under 5% CO2. The final volume was 200 μL. Following incubation, the cells were centrifuged, and the supernatants collected and stored at −70° C. prior to assaying for IL-2 production. A commercial ELISA kit (IL-2 Eli-pair, Diaclone Research, Besancon, France) was used to detect production of IL-2, from which dose response curves were obtained. The IC50 value was calculated as the concentration at which 50% of maximum IL-2 production after stimulation was inhibited versus a non-stimulation control.

T1 sequence (Q5M848 whole entry): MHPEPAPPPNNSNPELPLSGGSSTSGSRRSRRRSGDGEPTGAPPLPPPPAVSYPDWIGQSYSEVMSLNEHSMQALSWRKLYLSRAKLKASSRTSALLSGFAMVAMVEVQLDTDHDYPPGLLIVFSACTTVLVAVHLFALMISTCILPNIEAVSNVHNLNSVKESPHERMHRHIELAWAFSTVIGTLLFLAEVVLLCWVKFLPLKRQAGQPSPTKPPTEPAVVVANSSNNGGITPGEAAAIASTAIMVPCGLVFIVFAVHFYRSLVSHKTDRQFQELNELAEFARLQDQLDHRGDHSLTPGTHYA

Work on `Cc1ccc(-c2nc(-c3ccc(C(=O)Nc4c(F)cccc4F)cc3)c(C)s2)cn1` [Compound 1] yielded an inhibition at 0.1 µM [1] of 80% and an IC50 [2] of 27 nM.

`Cc1cc(C)c(NC(=O)c2ccc(-c3cc(-c4nnn(C)n4)ccc3Cl)cc2)cn1` [Compound 2, 2′-chloro-N-(4,6-dimethylpyridin-3-yl)-5′-(2-methyl-2H-tetrazol-5-yl)-[1,1′-biphenyl]-4-carboxamide] showed an inhibition at 0.1 µM [1] of 61% and an IC50 [2] of 33 nM.

`Cc1cc(C)c(NC(=O)c2ccc(-c3cc(-c4nnn(C)n4)ccc3C)cc2)cn1` [Compound 3, N-(4,6-dimethylpyridin-3-yl)-2′-methyl-5′-(2-methyl-2H-tetrazol-5-yl)-[1,1′-biphenyl]-4-carboxamide] was tested, and the inhibition at 0.1 µM [1] was 36% and the IC50 [2] was 46 nM.

`Cc1ccncc1C(=O)Nc1ccc(-c2cc(-c3nnn(C)n3)ccc2Cl)cn1` [Compound 4, N-(5-(2-chloro-5-(2-methyl-2H-tetrazol-5-yl)phenyl)pyridin-2-yl)-4-methylnicotinamide] gave an inhibition at 0.1 µM [1] of 36%.

For `CCc1sc(-c2cnc(C)cn2)nc1-c1ccc(C(=O)Nc2cnc(C)cc2C)cc1` [Compound 5], the inhibition at 0.1 µM [1] was 40% and the IC50 [2] was 32 nM.

With `CCc1sc(-c2cc(C)on2)nc1-c1ccc(C(=O)Nc2cncnc2C)cc1` [Compound 6] the inhibition at 0.1 µM [1] was 93% and the IC50 [2] was 38 nM.

`Cn1cc(-c2ccc(Cl)c(-c3cnc(NC(=O)c4cccc(F)c4F)cn3)c2)cn1` [Compound 7, N-(5-(2-chloro-5-(1-methyl-1H-pyrazol-4-yl)phenyl)pyrazin-2-yl)-2,3-difluorobenzamide] was tested, and the inhibition at 0.1 µM [1] was 98% and the IC50 [2] was 10 nM.

Compound `Cn1cc(-c2ccc(Cl)c(-c3cnc(NC(=O)c4ccc(F)cc4F)cn3)c2)cn1` [Compound 8, N-(5-(2-chloro-5-(1-methyl-1H-pyrazol-4-yl)phenyl)pyrazin-2-yl)-2,4-difluorobenzamide] has an inhibition at 0.1 µM [1] of 82% and an IC50 [2] of 14 nM.

`CCc1sc(-c2cc(C)on2)nc1-c1ccc(NC(=O)c2cncc(Cl)c2C)nc1` [Compound 9] was tested, and the inhibition at 0.1 µM [1] was 73% and the IC50 [2] was 10 nM.
